Assay results published in ChEMBL document CHEMBL5465560, “Selectivity Literature for EUbOPEN Chemogenomic Library” (2024).

Columns and labels:
[1] = biological target: Mitogen-activated protein kinase 8 (Homo sapiens, UniProt P45983); settings: at 10 µM
[2] = biological target: Serine/threonine-protein kinase MARK2 (Homo sapiens) (UniProt Q7KZI7); assay: Selectivity interaction (ActivX KiNativ screen (kinase selectivity in THP-1 cell lysates)) EUB0000639a MARK2; assay type: subcellular; settings: lysate, at 5 µM
[3] = biological target: T1, Mitogen-activated protein kinase kinase kinase kinase 2 (Homo sapiens) (UniProt Q12851); assay: Selectivity interaction (Kinase panel (Invitrogen)) EUB0000639a MAP4K2; settings: at 200 nM
T1 sequence (whole entry): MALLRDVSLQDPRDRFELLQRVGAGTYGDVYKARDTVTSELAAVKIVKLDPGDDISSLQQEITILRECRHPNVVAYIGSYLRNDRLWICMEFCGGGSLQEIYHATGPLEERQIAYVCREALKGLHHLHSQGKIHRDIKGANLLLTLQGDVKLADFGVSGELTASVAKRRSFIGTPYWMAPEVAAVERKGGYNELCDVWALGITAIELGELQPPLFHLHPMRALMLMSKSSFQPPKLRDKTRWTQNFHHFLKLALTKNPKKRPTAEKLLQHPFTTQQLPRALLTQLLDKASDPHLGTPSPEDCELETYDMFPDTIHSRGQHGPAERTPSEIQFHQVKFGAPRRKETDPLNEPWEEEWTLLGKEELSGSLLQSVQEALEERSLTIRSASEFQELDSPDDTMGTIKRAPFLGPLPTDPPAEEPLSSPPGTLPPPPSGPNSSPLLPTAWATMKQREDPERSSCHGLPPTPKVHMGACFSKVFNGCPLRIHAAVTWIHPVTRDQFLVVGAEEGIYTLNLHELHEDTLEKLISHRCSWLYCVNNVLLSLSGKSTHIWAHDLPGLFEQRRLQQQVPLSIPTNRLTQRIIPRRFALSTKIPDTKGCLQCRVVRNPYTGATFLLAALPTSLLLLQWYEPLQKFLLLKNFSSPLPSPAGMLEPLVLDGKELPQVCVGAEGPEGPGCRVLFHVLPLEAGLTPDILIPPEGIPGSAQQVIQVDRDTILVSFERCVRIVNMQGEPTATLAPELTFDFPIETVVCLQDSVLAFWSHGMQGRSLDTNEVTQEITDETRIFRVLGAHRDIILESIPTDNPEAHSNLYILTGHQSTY

[4] = biological target: Casein kinase II subunit alpha (Homo sapiens, UniProt P68400); assay: Selectivity interaction (Kinase panel (Enzyme activity assay)) EUB0000612a CSNK2A1
[5] = biological target: T2, Serine/threonine-protein kinase 3 (Homo sapiens) (UniProt Q13188); assay: Selectivity interaction (KinomeScan (DiscoverX)) EUB0000595a STK3; settings: at 10 µM
T2 sequence (whole entry): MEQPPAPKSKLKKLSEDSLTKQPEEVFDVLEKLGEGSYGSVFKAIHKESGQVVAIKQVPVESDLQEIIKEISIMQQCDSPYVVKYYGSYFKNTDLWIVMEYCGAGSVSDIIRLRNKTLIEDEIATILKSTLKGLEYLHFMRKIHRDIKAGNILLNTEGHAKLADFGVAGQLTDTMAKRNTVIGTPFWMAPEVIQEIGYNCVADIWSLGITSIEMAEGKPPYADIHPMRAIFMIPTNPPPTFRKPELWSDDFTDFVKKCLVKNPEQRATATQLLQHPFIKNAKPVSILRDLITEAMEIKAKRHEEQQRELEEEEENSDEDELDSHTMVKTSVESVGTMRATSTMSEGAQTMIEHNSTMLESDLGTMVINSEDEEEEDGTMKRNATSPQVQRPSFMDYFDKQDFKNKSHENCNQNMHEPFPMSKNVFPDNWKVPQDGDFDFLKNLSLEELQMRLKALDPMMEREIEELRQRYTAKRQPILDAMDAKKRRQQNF

[6] = biological target: Mitogen-activated protein kinase 14 (Homo sapiens, UniProt Q16539); assay: Selectivity interaction (KinomeScan (DiscoverX)) EUB0000595a MAPK14; settings: at 10 µM
[7] = biological target: Receptor tyrosine-protein kinase erbB-4 (Homo sapiens, UniProt Q15303); assay: Selectivity interaction (KinomeScan (DiscoverX)) EUB0000595a ERBB4; settings: at 10 µM
[8] = biological target: Cyclin-dependent kinase 4 (Homo sapiens, UniProt P11802); assay: Selectivity interaction (KinomeScan (DiscoverX)) EUB0000229b CDK4; settings: at 10 µM
[9] = biological target: T3, Activin receptor type-1B (Homo sapiens) (UniProt P36896); assay: Selectivity interaction (KinomeScan (DiscoverX)) EUB0000092b ACVR1B; settings: at 10 µM
T3 sequence (whole entry): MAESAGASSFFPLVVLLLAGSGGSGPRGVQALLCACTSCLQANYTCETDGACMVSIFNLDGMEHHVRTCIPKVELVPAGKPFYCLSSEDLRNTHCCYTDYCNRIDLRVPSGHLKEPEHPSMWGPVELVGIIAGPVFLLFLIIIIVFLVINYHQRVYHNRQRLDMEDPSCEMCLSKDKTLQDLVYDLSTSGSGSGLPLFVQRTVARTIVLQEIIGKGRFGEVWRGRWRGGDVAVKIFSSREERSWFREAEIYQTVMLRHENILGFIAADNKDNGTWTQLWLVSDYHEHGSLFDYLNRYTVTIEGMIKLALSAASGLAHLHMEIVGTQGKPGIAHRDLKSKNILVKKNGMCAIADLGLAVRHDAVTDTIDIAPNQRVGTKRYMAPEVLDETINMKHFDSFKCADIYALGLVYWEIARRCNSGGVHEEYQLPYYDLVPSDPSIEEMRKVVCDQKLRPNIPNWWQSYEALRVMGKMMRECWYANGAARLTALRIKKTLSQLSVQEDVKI

[10] = biological target: Serine/threonine-protein kinase VRK2 (Homo sapiens) (UniProt Q86Y07); assay: Selectivity interaction (KinomeScan (DiscoverX)) EUB0000092b VRK2; settings: at 10 µM
[11] = biological target: Mitogen-activated protein kinase 10 (Homo sapiens, UniProt P53779); assay: Selectivity interaction (KinomeScan (DiscoverX)) EUB0000092b MAPK10; settings: at 10 µM
[12] = biological target: Serine/threonine-protein kinase Nek6 (Homo sapiens) (UniProt Q9HC98); assay: Selectivity interaction (Upstate Kinase Profiler service (Millipore)) EUB0000056c NEK6; settings: at 1 µM
[13] = biological target: Serine/threonine-protein kinase MRCK alpha (Homo sapiens) (UniProt Q5VT25); assay: Selectivity interaction (KinomeScan (DiscoverX)) EUB0000655a CDC42BPA; settings: at 10 µM
[14] = tested on: Proto-oncogene tyrosine-protein kinase receptor Ret (Homo sapiens), P07949 [V804M]; assay: Selectivity interaction (KinomeScan (DiscoverX)) EUB0000311b RET; settings: at 1 µM
[15] = biological target: Myosin light chain kinase, smooth muscle (Homo sapiens, UniProt Q15746); assay: Selectivity interaction (KinomeScan (DiscoverX)) EUB0001619a MYLK; settings: at 1 µM
[16] = biological target: Ribosomal protein S6 kinase alpha-1 (Homo sapiens, UniProt Q15418); assay: Selectivity interaction (KinomeScan (DiscoverX)) EUB0000618a RPS6KA1; settings: at 10 µM
[17] = biological target: Microtubule-associated serine/threonine-protein kinase 1 (Homo sapiens) (UniProt Q9Y2H9); assay: Selectivity interaction (KinomeScan (DiscoverX)) EUB0000666a MAST1; settings: at 10 µM
Chain of Microtubule-associated serine/threonine-protein kinase 1 (Homo sapiens) (Q9Y2H9 whole entry, looked up): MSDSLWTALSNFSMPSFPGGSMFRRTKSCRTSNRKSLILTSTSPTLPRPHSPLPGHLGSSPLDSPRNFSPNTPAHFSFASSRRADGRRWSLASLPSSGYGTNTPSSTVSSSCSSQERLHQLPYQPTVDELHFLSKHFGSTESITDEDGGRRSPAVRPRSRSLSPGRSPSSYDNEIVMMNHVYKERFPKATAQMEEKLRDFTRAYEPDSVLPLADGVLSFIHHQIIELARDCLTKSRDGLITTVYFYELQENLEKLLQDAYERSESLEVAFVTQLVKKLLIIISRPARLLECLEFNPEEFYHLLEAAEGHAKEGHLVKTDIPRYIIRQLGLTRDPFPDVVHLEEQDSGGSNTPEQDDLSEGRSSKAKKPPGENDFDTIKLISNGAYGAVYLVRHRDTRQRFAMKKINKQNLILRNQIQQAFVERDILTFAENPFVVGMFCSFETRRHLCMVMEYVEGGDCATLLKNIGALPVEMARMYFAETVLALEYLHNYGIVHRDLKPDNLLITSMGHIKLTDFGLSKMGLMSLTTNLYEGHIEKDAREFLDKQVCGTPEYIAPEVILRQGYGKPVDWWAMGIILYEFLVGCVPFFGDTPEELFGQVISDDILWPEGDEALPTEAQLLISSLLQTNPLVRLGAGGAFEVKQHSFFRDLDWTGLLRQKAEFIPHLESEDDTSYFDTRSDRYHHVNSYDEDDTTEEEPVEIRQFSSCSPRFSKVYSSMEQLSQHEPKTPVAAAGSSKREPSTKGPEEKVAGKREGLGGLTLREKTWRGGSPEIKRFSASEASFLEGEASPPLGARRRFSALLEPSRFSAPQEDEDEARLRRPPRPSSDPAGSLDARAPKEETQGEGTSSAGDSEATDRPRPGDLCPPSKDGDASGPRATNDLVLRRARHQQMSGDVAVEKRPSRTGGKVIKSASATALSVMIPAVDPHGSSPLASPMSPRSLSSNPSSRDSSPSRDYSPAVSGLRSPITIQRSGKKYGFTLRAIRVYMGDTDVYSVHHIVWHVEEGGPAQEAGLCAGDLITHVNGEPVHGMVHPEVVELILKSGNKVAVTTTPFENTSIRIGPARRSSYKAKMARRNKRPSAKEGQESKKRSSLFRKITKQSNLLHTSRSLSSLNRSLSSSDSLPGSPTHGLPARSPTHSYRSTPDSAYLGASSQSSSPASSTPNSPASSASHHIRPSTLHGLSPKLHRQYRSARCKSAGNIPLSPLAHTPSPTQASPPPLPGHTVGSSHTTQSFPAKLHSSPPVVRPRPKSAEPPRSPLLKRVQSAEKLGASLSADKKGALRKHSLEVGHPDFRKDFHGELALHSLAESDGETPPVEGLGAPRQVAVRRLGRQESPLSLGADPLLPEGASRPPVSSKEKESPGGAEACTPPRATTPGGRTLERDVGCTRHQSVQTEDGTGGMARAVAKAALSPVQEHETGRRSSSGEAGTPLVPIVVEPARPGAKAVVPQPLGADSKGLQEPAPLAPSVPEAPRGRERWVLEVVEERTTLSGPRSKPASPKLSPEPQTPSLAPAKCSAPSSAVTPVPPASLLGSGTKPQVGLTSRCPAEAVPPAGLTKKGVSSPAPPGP

Chain of Mitogen-activated protein kinase 14 (Q16539 whole entry): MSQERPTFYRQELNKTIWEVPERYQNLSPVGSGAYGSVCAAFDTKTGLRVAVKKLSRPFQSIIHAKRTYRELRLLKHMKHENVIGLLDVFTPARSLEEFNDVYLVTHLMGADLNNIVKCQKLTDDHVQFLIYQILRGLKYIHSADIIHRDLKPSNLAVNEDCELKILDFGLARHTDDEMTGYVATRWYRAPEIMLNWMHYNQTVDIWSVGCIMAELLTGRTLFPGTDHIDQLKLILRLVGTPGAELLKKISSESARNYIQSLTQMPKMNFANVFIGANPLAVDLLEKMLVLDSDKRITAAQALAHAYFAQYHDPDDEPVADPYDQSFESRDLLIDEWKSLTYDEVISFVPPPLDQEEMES
Chain of Serine/threonine-protein kinase MARK2 (Homo sapiens) (Q7KZI7 whole entry): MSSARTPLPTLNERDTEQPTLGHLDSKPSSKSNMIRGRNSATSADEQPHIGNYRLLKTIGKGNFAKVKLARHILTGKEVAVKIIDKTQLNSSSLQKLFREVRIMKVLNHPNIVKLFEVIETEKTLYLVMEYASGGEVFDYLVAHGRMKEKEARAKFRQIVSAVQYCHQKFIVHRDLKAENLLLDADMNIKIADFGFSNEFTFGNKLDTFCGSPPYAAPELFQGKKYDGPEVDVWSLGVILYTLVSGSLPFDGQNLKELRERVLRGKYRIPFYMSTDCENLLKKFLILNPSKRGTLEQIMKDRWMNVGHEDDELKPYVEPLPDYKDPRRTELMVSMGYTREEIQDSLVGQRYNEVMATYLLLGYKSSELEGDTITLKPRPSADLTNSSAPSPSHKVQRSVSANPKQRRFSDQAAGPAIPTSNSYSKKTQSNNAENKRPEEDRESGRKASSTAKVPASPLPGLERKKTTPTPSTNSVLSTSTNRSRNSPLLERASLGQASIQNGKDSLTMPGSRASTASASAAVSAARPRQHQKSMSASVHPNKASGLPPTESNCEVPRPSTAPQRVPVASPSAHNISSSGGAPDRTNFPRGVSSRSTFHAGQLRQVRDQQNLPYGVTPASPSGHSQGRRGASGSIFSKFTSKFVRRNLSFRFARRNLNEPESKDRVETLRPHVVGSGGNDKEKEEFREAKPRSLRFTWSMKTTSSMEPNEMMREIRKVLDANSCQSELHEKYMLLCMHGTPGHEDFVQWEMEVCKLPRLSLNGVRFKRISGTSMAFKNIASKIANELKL
Chain of Serine/threonine-protein kinase VRK2 (Homo sapiens) (Q86Y07 whole entry): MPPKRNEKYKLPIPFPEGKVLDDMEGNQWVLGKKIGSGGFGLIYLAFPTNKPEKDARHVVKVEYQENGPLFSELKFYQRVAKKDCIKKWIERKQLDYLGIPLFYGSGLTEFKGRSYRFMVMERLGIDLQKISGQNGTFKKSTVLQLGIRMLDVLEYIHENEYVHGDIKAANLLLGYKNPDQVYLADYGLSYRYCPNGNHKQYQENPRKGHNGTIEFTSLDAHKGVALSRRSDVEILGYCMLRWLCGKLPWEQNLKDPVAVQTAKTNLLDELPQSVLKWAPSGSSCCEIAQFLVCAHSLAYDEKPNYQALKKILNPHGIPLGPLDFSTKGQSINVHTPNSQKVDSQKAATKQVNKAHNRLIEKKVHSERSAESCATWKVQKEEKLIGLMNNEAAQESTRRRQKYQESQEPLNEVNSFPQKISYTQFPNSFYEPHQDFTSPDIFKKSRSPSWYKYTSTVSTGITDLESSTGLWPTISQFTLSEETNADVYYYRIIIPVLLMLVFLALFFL
Chain of Casein kinase II subunit alpha (P68400 whole entry): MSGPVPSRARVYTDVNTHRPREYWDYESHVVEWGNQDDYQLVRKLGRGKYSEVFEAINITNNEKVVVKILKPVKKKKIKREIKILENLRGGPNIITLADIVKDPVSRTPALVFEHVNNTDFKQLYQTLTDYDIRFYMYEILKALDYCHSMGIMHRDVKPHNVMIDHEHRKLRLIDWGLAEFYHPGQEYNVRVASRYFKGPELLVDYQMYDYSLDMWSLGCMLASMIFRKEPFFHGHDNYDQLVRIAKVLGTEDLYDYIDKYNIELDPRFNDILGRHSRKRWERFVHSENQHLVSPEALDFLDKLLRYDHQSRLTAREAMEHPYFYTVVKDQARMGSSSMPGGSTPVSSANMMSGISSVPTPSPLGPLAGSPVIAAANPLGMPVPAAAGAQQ
Chain of Mitogen-activated protein kinase 10 (P53779 whole entry): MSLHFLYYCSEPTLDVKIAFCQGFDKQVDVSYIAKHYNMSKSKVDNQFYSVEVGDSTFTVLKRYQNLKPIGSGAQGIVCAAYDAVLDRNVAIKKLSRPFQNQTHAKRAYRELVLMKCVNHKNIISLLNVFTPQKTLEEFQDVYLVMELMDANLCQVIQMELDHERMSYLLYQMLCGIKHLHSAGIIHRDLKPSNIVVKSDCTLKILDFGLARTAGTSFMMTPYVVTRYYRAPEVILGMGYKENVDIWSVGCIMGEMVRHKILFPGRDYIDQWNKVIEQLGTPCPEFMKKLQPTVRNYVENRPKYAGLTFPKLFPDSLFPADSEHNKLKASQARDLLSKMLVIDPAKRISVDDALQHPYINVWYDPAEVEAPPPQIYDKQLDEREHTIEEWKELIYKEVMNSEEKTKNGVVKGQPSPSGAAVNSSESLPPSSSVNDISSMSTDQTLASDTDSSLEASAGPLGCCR
Chain of Ribosomal protein S6 kinase alpha-1 (Q15418 whole entry): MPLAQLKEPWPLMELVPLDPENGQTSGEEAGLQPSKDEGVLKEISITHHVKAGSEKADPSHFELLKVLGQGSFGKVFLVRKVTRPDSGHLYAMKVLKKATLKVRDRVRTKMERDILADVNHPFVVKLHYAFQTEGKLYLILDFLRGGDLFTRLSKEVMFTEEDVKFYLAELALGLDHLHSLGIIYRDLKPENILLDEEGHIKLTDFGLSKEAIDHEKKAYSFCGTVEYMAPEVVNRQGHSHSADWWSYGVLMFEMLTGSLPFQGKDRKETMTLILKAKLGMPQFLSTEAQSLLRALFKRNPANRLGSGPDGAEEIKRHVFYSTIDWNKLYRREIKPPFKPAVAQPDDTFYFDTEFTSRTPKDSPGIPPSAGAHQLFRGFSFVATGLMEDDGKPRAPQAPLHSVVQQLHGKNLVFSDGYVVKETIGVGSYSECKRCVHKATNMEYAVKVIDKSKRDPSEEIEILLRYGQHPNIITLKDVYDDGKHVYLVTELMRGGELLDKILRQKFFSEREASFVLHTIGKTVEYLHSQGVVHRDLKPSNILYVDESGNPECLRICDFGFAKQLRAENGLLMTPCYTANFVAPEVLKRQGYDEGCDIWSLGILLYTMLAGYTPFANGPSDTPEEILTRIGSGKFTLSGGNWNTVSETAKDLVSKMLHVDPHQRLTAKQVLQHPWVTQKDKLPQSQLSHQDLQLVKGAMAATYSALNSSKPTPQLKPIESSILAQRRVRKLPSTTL

Cc1cc([C@@H](C)Nc2ccccc2C(=O)O)c2nc(N3CCOCC3)cc(=O)n2c1 [AZD-6482] was tested, and the % of control [1] was 100%.
CC[C@@H]1[C@H](F)C(=O)N[C@@H]1COc1nccc2cc(C(N)=O)c(OC)cc12 [ZIMLOVISERTIB] gave a % of inhibition [2] of 48.9% and a % of inhibition [3] of 2.66%.
CCc1cccc(CC)c1NC(=O)c1nn(C)c2c1CCc1cnc(Nc3ccc(C(=O)NC4CCN(C)CC4)cc3OC(F)(F)F)nc1-2 showed an IC50 [4] of 5.7 µM.
In the case of COCC(=O)NC/C=C/c1ccc2ncnc(Nc3ccc(Oc4ccc(C)nc4)c(C)c3)c2c1 [CP-724714], the % of control [5] is reported as 82%, the % of control [6] is reported as 100% and the % of control [7] is reported as 0.9%.
For COc1cc(N(C)c2ccnc3ccc(C(F)(F)F)cc23)cc(OC)c1OC, the % binding [8] was 100%.
Work on CCC(=O)N1CCN(c2ccc(-n3c(=O)ccc4cnc5ccc(-c6cnc7ccccc7c6)cc5c43)cc2C(F)(F)F)CC1 yielded a % of control [9] of 45%, a % of control [10] of 100% and a % of control [11] of 31%.
For Cc1ccc(-c2ccc3c(ccc4sc5c(c43)NC[C@@H](C)NC5=O)n2)cn1, the % of inhibition [12] was -6%.
In the case of CN(C)CCOc1ccc(-c2nc(-c3ccncc3)c(-c3ccc4c(c3)CC/C4=N\O)[nH]2)cc1, the % of control [13] is reported as 78%.
CCc1ccccc1C(=O)Nc1n[nH]c2c(C)c(F)c(C3C(C#N)=C(C)N(C)C(C)=C3C#N)cc12 [BAY-3827] showed a % of control [14] of 11%.
Compound N#Cc1cccc(-c2c[nH]c3ncnc(N4CCOCC4)c23)c1 has a % of control [15] of 93%.
Work on O[C@H]1CC[C@H](Nc2ncc3nc(Nc4c(F)cc(F)cc4F)n([C@H]4CCOC4)c3n2)CC1 yielded a % of control [16] of 70%.
O=C(NOC[C@H](O)CO)c1ccc(F)c(F)c1Nc1ccc(I)cc1F showed a % of control [17] of 100%.
